Source: article PMC9423820, “Melittin-derived peptides exhibit variations in cytotoxicity and antioxidant, anti-inflammatory and allergenic activities” (Animal Cells and Systems, 2022)
Where no end group is shown, it is not given here.

Legend:
BEAS-2B cells = experiment: MTS cell viability assay (CellTiter 96 Aqueous One), BEAS-2B; format: cell-based, human; set-up: key to Cytotoxicity (summary): +, active; -, inactive; details: 24 h; for Cytotoxicity (summary): Figure 4B summary, MTS assay, BEAS-2B and HeLa cells
From the text: Human pulmonary bronchial epithelial BEAS-2B, human epithelial cervix carcinoma HeLa, murine macrophage RAW 264.7, and rat basophilic leukemia mast RBL-2H3 cells were purchased from American Type Culture Collection (ATCC, VA, USA). BEAS-2B cells were maintained in bronchial epithelial basal medium (BEBM; Lonza, Basel, Switzerland). HeLa, RAW 264.7, and RBL-2H3 cells were maintained in DMEM supplemented with 10% heat-inactivated fetal bovine serum (Welgene, Gyeongsangbuk-do, Korea) and 1% penicillin and streptomycin (Welgene) at 37 °C in a humidified atmosphere of 5% CO2. Melittin and its derived peptides (Figure 1A) were synthesized by Peptron, Inc. (Daejeon, Korea).
The effect of melittin and melittin-derived peptides on cell viability was evaluated using the CellTiter 96^R Aqueous One Solution Cell Proliferation Assay (Promega, Madison, WI, USA), according to the manufacturer’s instructions (Cambronero-Urena et al. [2021]). BEAS-2B and HeLa cells were seeded (3,000 cells/well) in 96-well plates and incubated for 24 h. Culture medium containing melittin or melittin-derived peptides was added to the plates, and they were incubated for 24 h. Thereafter, 20 μL of MTS reagent was added, and absorbance was measured at 490 nm using a microplate reader (Molecular Devices EMax Plus). The formula used to calculate the cell viability is as follows: Cell viability (%)={(A Sample−A [Blank]) / (A [Control])−A [Blank])}×100, Where A is the absorbance for a given wavelength.

[1] = system: TNF-α, IL-6, IL-1β mRNA expression in RAW 264.7 cells; experiment: qRT-PCR of inflammatory cytokine mRNA in LPS-stimulated RAW 264.7 cells; format: cell-based, murine; set-up: key to Anti-inflammatory activity (summary): +, active; -, inactive; details: for Anti-inflammatory activity (summary): Figure 4B summary, LPS-stimulated RAW 264.7 cells
Procedure: RAW 264.7 cells (1 × 10^5 cells/well) were seeded in 6-well plates and incubated for 24 h (Ahmed et al. [2020]). Next, culture medium with melittin or melittin-derived peptides was added to the plates, and they were incubated for 24 h. Thereafter, lipopolysaccharide (LPS) was added to the medium at a final concentration of 1 μg/mL, followed by incubation for 6 h. The medium was completely removed, the cells were washed with cold PBS and lysed with 1 mL of RiboEx (GeneAll, Korea), and RNA was extracted using a Hybrid-R RNA purification kit (GeneAll). To synthesize cDNA, RNA was quantified using a Nabi UV/Vis nanospectrophotometer (MicroDigital, Korea), and 1 μL of random hexamer (100 pmol/μL) and 1 μL of dNTP mix (10 mM) were added to each RNA sample (1 μg). The total volume was adjusted to 10 μL using DEPC-treated water. The mixture was subjected to heating at 65 °C for 5 min and immediately cooled on ice. Thereafter, 1 μL M-MLV reverse transcriptase (Promega), 4 μL 5X M-MLV RT reaction buffer (Promega), 1 μL RNase inhibitor (Enzynomics, Korea), and 4 μL DEPC-treated water were added to each RNA sample, and the mixture was incubated at 25 °C for 10 min and then at 50 °C for 1 h.
The mRNA expression levels of inflammatory cytokines were analyzed using qRT-PCR. The reaction mixture contained 10 μL of 2X Prime Q-master Mix (GENET BIO, Korea), 1.5 μL of 10 pmol/μL forward primer, 1.5 μL of 10 pmol/μL reverse primer, 5 μL of DEPC-treated water, and 2 μL of cDNA (1/10 dilution); qRT-PCR was performed using AriaMx (Agilent, USA) as per the following conditions: 40 cycles of denaturation at 95 °C for 20 s, annealing at 58 °C for 20 s, and elongation at 72 °C for 20 s. The primers used for the qRT-PCR are listed in Supplementary 1.

[2] = ABTS radical scavenging assay; format: biochemical; set-up: key to Anti-oxidant activity (summary): +, active; -, inactive; details: for Anti-oxidant activity (summary): Figure 4B summary, ABTS radical scavenging; for antioxidant activity (ABTS radical scavenging), in words: 4 min reaction, absorbance 650 nm, resveratrol as positive control, n = 3
Procedure: The antioxidant activities of melittin and melittin-derived peptides were measured using the 2,2'-azino-bis(3-ethylbenzothiazoline-6-sulfonic acid) (ABTS) radical scavenging assay. ABTS^+ radical solution was prepared by mixing equal volumes of 7 mM ABTS solution with 2.4 mM persulfate solution and allowing them to react in the dark at 25 °C for 24 h. Before this reaction, the ABTS^+ radical solution was diluted with distilled water to obtain an absorbance of 0.7 ± 0.01 units at 650 nm. Melittin and melittin-derived peptides (20 µL each) at various concentrations were then reacted with 80 µL of ABTS^+ radical solution for 4 min in the dark, and absorbance was measured at 650 nm using an EMax Plus microplate reader (Molecular Devices, San Jose, CA, USA). ABTS^+ radical scavenging activity was calculated using the following formula: ABTS+ radical scavenging activity (%) = [1 − (Abssample − Absblank of sample) / Abscontrol] × 100, where Abscontrol is the absorbance of ABTS^+ radical solution diluted in water, Abssample is the absorbance of ABTS^+ radical solution mixed with melittin or melittin-derived peptides, and Absblank of sample is the absorbance of water mixed with melittin or melittin-derived peptides. All experiments were performed in triplicates (n = 3).

[3] = system: IκBα phosphorylation in RAW 264.7 cells; experiment: Immunoblot of phospho-IκBα in LPS-stimulated RAW 264.7 cells; format: cell-based, murine; details: RAW 264.7, 24 h pretreatment (melittin 1.25 μM; P1 2.5 μM; P2 indicated concentrations), LPS 1 μg/mL 1 h, n = 3
Procedure: RAW 264.7 cells (1 × 10^5 cells/well) were seeded in a 6-well plate and incubated for 24 h. Medium containing melittin or melittin-derived peptides was added, and the plates were incubated for 24 h. Thereafter, LPS was added to the medium at a final concentration of 1 μg/mL, followed by incubation for 1 h. To prepare protein samples, the medium was completely removed by aspiration, and the cells were washed with cold PBS and then lysed with lysis buffer [10 mM Tris-HCl (pH 7.5), 100 mM NaCl, 1 mM EDTA, 1 mM EGTA, 1% Triton X-100, 10% glycerol, and 0.1% SDS] with a protease inhibitor cocktail (Roche, Switzerland). The protein samples were sonicated and centrifuged at 16,000 × g for 10 min. The supernatant was then transferred to a new tube and used for immunoblot analysis. The protein samples were separated using sodium dodecyl sulfate-polyacrylamide gel electrophoresis (SDS-PAGE), and the separated proteins were transferred onto a nitrocellulose membrane (0.45 μm, Merck Millipore, USA). […] The unbound antibodies were washed with PBS-T, and the antibodies bound to the nitrocellulose membrane were detected using the SuperSignal system (SuperSignal; Thermo Fisher Scientific), using horseradish peroxidase-conjugated secondary antibodies (Abcam, Cambridge, UK).

RBL-2H3 cells = experiment: β-Hexosaminidase release (degranulation) assay; format: cell-based, rat; set-up: key: +, active; -, inactive; details: Figure 4B summary
Procedure: The β-hexosaminidase release assay was performed as previously described. RBL-2H3 cells (5 × 10^4 cells/well) were seeded in 96-well plates and incubated for 24 h. The medium was removed, and the cells were washed twice with siraganian buffer (119 mM NaCl, 5 mM KCl, 5.6 mM glucose, 0.4 mM MgCl2, 25 mM PIPES, 40 mM NaOH, 1 mM CaCl2, and 0.1% BSA, pH 7.2), and then incubated in 100 μL siraganian buffer supplemented with compound 48/80 (Sigma-Aldrich, St. Louis, MO, USA), melittin, or melittin-derived peptides for 1 h. Compound 48/80 was used as a positive control. The reaction was terminated by incubation at 4 °C for 10 min. The fluorescence of β-hexosaminidase in the supernatant was measured with a β-hexosaminidase activity assay kit (Cell Biolabs, USA) using a 2104 EnVision multilabel plate reader (PerkinElmer, USA) at […]. The relative fluorescence units of β-hexosaminidase release were calculated by subtracting the fluorescence intensity of the control group from that of the experimental group.

P3: melittin-derived peptide composed of C-terminal 11 amino acids (LISWIKRKRQQ; ends and bridges not checked; UniProt P01501 59-69, looked up, fragment)
Cytotoxicity (summary) (BEAS-2B cells): -
Anti-inflammatory activity (summary) [1]: -
Anti-oxidant activity (summary) [2]: +

CC[C@H](C)[C@H](NC(=O)CN)C(=O)NCC(=O)N[C@@H](C)C(=O)N[C@H](C(=O)N[C@@H](CC(C)C)C(=O)N[C@@H](CCCCN)C(=O)N[C@H](C(=O)N[C@@H](CC(C)C)C(=O)N[C@H](C(=O)N[C@H](C(=O)NCC(=O)N[C@@H](CC(C)C)C(=O)N1CCC[C@H]1C(=O)N[C@@H](C)C(=O)N[C@@H](CC(C)C)C(=O)N[C@H](C(=O)N[C@@H](CO)C(=O)N[C@@H](Cc1c[nH]c2ccccc12)C(=O)N[C@H](C(=O)N[C@@H](CCCCN)C(=O)N[C@@H](CCCNC(=N)N)C(=O)N[C@@H](CCCCN)C(=O)N[C@@H](CCCNC(=N)N)C(=O)N[C@@H](CCC(N)=O)C(=O)N[C@@H](CCC(N)=O)C(N)=O)[C@@H](C)CC)[C@@H](C)CC)[C@@H](C)O)[C@@H](C)O)C(C)C)C(C)C [Melittin]
cellular activity (cell viability) (BEAS-2B cells; BEAS-2B, 2.5 μM, MTS, n = 3): 75%
concentration showing strong cytotoxicity (BEAS-2B cells; BEAS-2B, MTS): ≥ 5 µM
Cytotoxicity (summary) (BEAS-2B cells): +
Anti-inflammatory activity (summary) [1]: +
inhibition of mRNA expression of inflammatory cytokines (TNF-α, IL-6, IL-1β) ([1]; RAW 264.7, 1.25 μM, 24 h pretreatment, LPS 1 μg/mL 6 h, qRT-PCR, n = 3): significant inhibition
effect on LPS-induced IκBα phosphorylation [3]: decreased slightly
antioxidant activity (ABTS radical scavenging), in words [2]: comparable to that of resveratrol
Anti-oxidant activity (summary) [2]: +
Allergenic activity (summary) (RBL-2H3 cells): +

P4: melittin-derived peptide consisting of nine amino acids of the N-terminal of melittin (GIGAVLKVL; Melittin; UniProt P01501 44-52, looked up, fragment)
Cytotoxicity (summary) (BEAS-2B cells): -
Anti-inflammatory activity (summary) [1]: -
antioxidant activity (ABTS radical scavenging), in words [2]: did not show antioxidant activity
Anti-oxidant activity (summary) [2]: -
